Patent US20150253327A1, “DIAGNOSIS AND TREATMENT OF ASPIRIN-EXACERBATED RESPIRATORY DISEASE (AERD)” (BRIGHAM AND WOMEN'S HOSPITAL, INC., priority 2012, published 2015)

How the values were obtained:
[1] = extracellular milieu (ref 43); cited from earlier work
human platelets = conditions: exogenous cysLTs; inventors' previous work (ref 49); cited from earlier work
mice = conditions: pathway depends on platelet associated P2Y12 receptors (ref 49); cited from earlier work
[2] = system: fMLP-stimulated granulocytes; experiment: Suppression of fMLP-induced LTB4 generation by granulocytes from subjects with AERD; format: cell-based, human; conditions: pretreatment of granulocytes from subjects with AERD; FIG. 12B-12C
Text: FIG. 12A depicts a graph of percentages of platelet-adherent neutrophils (determined by CD61^+ expression) in whole blood from eight subjects with AERD plotted against quantity of LTB4 generated by fMLP-stimulated granulocytes from the same individuals. Percent suppression of fMLP-induced LTB4 by pretreatment with (FIG. 12B) PGE2 or (FIG. 12C) the EP2 receptor-specific agonist was plotted against percentages of platelet-adherent neutrophils in the peripheral blood of each subject. Effect size, determined with Pearson correlation coefficient, is denoted as an r value.
Platelet-rich plasma was removed from whole peripheral blood by centrifugation, washed, and resuspended at a concentration of 1×10^9 platelets/mL. […] Granulocytes were counted and a portion was stripped of adherent platelets by incubation with 0.05% trypsinethylenediaminetetraacetic acid for 15 minutes at 37° C.^17 Removal of adherent platelets was confirmed by cytofluorographic analysis of samples of the granulocytes before and after trypsinization. […]
The percentage of platelet-adherent neutrophils (as determined by CD61+ expression) in the whole blood of subjects with AERD was positively correlated with the amount of LTB4 generated by fMPL-stimulation of granulocytes from the same subjects (FIG. 12A). […]

CCCCC/C=C\C\C=C/C=C/C=C/[C@@H]1O[C@H]1CCCC(=O)O [LTA4, leukotriene (LT)A4]
extracellular half-life [1]: less than 5 seconds

CCCCC/C=C\C\C=C/C=C/C=C/[C@@H](SC[C@H](N)C(=O)O)[C@@H](O)CCCC(=O)O [LTE4]
adherence of platelets to granulocytes (human platelets): do not directly cause human platelets to adhere to granulocytes
pulmonary eosinophilia (mice): markedly potentiates pulmonary eosinophilia

CCCCC[C@H](O)/C=C/[C@H]1[C@H](O)CC(=O)[C@@H]1C/C=C\CCCC(=O)O [PGE2]
suppression of leukotriene production (fMLP-induced LTB4) [2]: able to suppress leukotriene production
